24 compounds from patent US20040082635A1, “Fused cyclic compounds and medicinal use thereof” (priority 2001, published 2004) can be followed below.

For the assay, the target named is T1, HCV polymerase (Hepatitis C virus genotype 1b, UniProt P26663).
T1 construct: a region encoding NS5B (591 amino acids; J Virol 1991 Mar, 65(3), 1105-13) was amplified by PCR; 6 His (N); made in house; host or cells: Escherichia coli
T1 sequence (P26663 2420-3010): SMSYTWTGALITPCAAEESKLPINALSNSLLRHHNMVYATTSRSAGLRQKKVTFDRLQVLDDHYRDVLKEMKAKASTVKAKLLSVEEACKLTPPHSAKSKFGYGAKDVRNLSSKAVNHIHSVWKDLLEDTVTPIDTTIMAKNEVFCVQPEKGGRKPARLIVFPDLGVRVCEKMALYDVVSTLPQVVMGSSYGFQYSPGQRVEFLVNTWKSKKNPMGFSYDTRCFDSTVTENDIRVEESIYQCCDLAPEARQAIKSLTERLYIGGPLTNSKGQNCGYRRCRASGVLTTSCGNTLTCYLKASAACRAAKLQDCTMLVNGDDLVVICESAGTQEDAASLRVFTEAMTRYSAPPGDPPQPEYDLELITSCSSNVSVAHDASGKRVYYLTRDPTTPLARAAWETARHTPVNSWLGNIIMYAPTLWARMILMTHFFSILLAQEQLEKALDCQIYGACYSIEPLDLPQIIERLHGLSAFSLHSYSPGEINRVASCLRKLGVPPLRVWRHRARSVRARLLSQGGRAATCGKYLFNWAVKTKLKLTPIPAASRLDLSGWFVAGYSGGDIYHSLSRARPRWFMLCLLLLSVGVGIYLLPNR
In words: biochemical. The settings on record: read-out: HCV polymerase inhibitory activity IC50.
The IC50 is the concentration that inhibits the measured activity by half. `O=C(O)c1ccc2c(c1)nc(-c1ccc(Oc3ccccc3OCC(=O)N3CCCCC3)cc1)n2C1CCCCC1` [Example 192, 1-cyclohexyl-2-{4-[2-(piperidinocarbonylmethoxy)phenoxy]-phenyl}benzimidazole-5-carboxylic acid]: the IC50 was found to be 0.22 µM.
Under `O=C(O)c1ccc2c(c1)nc(-c1ccc(OC[C@@H]3CCCN3S(=O)(=O)c3ccccc3)cc1)n2C1CCCCC1` [Example 193, 2-{4-[{(2S)-1-benzenesulfonyl-2-pyrrolidinyl}methoxy]phenyl}-1-cyclohexylbenzimidazole-5-carboxylic acid] stands 0.13 µM; under `O=C(O)c1ccc2c(c1)nc(-c1ccc(OC[C@@H]3CCCN3C(=O)c3ccccc3)cc1)n2C1CCCCC1` [Example 194, 2-{4-[{(2S)-1-benzoyl-2-pyrrolidinyl}methoxy]phenyl}-1-cyclohexylbenzimidazole-5-carboxylic acid], 0.52 µM.
The value for `NC(=O)c1ccc(-c2ccc(Cl)cc2COc2ccc(-c3nc4cc(C(=O)O)ccc4n3C3CCCCC3)cc2)cc1` [Example 195, 2-{4-[2-(4-carbamoylphenyl)-5-chlorobenzyloxy]phenyl}-1-cyclohexylbenzimidazole-5-carboxylic acid] was 0.023 µM.
The value for `CN(C)C(=O)COc1cccc(Oc2ccc(-c3nc4cc(C(=O)O)ccc4n3C3CCCCC3)cc2)c1` [Example 196, 1-cyclohexyl-2-{4-[3-(dimethylcarbamoylmethoxy)phenoxy]phenyl}benzimidazole-5-carboxylic acid] was 0.2 µM.
As to `O=C(O)c1ccc2c(c1)nc(-c1ccc(Oc3cccc(OCC(=O)N4CCCCC4)c3)cc1)n2C1CCCCC1` [Example 197, 1-cyclohexyl-2-{4-[3-(piperidinocarbonylmethoxy)phenoxy]-phenyl}benzimidazole-5-carboxylic acid], the IC50 was 0.11 µM.
The value for `CS(=O)(=O)N1CCC(COc2cccc(Oc3ccc(-c4nc5cc(C(=O)O)ccc5n4C4CCCCC4)cc3)c2)CC1` [Example 198, 1-cyclohexyl-2-{4-[3-{(1-methanesulfonyl-4-piperidyl)methoxy}-phenoxy]phenyl}benzimidazole-5-carboxylic acid] was 0.044 µM.
The value for `Cc1nc(COc2ccc(-c3nc4cc(C(=O)O)ccc4n3C3CCCCC3)cc2)c(-c2ccc(Cl)cc2)o1` [Example 199, 1-cyclohexyl-2-{4-[{2-methyl-5-(4-chlorophenyl)-4-oxazolyl}-methoxy]phenyl}benzimidazole-5-carboxylic acid] was 0.11 µM; that for `O=C(O)c1ccc2c(c1)nc(-c1ccc(Oc3cccc(OCc4cccc(Cl)c4)c3)cc1)n2C1CCCCC1` [Example 200, 2-{4-[3-(3-chlorobenzyloxy)phenoxy]phenyl}-1-cyclohexylbenzimidazole-5-carboxylic acid] was 0.1 µM.
As to `O=C(O)c1ccc2c(c1)nc(-c1ccc(Oc3cccc(OCc4ccc(Cl)cc4)c3)cc1)n2C1CCCCC1` [Example 201, 2-{4-[3-(4-chlorobenzyloxy)phenoxy]phenyl}-1-cyclohexylbenzimidazole-5-carboxylic acid], the IC50 is 0.14 µM.
For the compound `O=C(O)c1ccc2c(c1)nc(-c1ccc(Oc3cccc(OCc4ccc(F)cc4)c3)cc1)n2C1CCCCC1` [Example 202, 1-cyclohexyl-2-{4-[3-(4-fluorobenzyloxy)phenoxy]phenyl}-benzimidazole-5-carboxylic acid], the half-inhibitory concentration (IC50) was 0.095 µM.
Regarding `O=C(O)c1ccc2c(c1)nc(-c1ccc(OC[C@@H]3CCCN3c3ccc([N+](=O)[O-])cc3)cc1)n2C1CCCCC1` [Example 203, 1-cyclohexyl-2-{4-[{(2S)-1-(4-nitrophenyl)-2-pyrrolidinyl}-methoxy]phenyl}benzimidazole-5-carboxylic acid], the half-maximal inhibitory concentration (IC50) is 0.063 µM.
Under `CC(=O)Nc1ccc(N2CCC[C@H]2COc2ccc(-c3nc4cc(C(=O)O)ccc4n3C3CCCCC3)cc2)cc1` [Example 205, 2-{4-[{(2S)-1-(4-acetylaminophenyl)-2-pyrrolidinyl}methoxy]-phenyl}-1-cyclohexylbenzimidazole-5-carboxylic acid] stands 0.077 µM; under `Cc1nc(COc2ccc(-c3nc4cc(C(=O)O)ccc4n3C3CCCCC3)cc2)c(-c2ccc(Cl)cc2)s1` [Example 206, 2-{4-[{5-(4-chlorophenyl)-2-methyl-4-thiazolyl}methoxy]phenyl}-1-cyclohexylbenzimidazole-5-carboxylic acid], 0.05 µM.
Turning to `O=C(O)c1ccc2c(c1)nc(-c1ccc(OCc3cccc([N+](=O)[O-])c3-c3ccc(Cl)cc3)cc1)n2C1CCCCC1` [Example 208, 1-cyclohexyl-2-{4-[2-(4-chlorophenyl)-3-nitrobenzyloxy]phenyl}-benzimidazole-5-carboxylic acid], the IC50 came to 0.039 µM.
For `O=C(O)c1ccc2c(c1)nc(-c1ccc(Oc3cccc(OC4CCOCC4)c3)cc1)n2C1CCCCC1` [Example 209, 1-cyclohexyl-2-{4-[3-(4-tetrahydropyranyloxy)phenoxy]phenyl}-benzimidazole-5-carboxylic acid], the IC50 amounted to 0.12 µM.
The value for `O=C(O)c1ccc2c(c1)nc(-c1ccc(Oc3cccc(OCc4ccc(C(F)(F)F)cc4)c3)cc1)n2C1CCCCC1` [Example 210, 1-cyclohexyl-2-{4-[3-(4-trifluoromethylbenzyloxy)phenoxy]phenyl}-benzimidazole-5-carboxylic acid] was 0.31 µM; that for `CN1CCC(COc2cccc(Oc3ccc(-c4nc5cc(C(=O)O)ccc5n4C4CCCCC4)cc3)c2)CC1` [Example 211, 1-cyclohexyl-2-{4-[3-{(1-methyl-4-piperidyl)methoxy}phenoxy]-phenyl}benzimidazole-5-carboxylic acid] was 0.059 µM.
`CC(C)(C)c1ccc(COc2cccc(Oc3ccc(-c4nc5cc(C(=O)O)ccc5n4C4CCCCC4)cc3)c2)cc1` [Example 212, 2-{4-[3-(4-tert-butylbenzyloxy)phenoxy]phenyl}-1-cyclohexylbenzimidazole-5-carboxylic acid]: the IC50 was 0.23 µM.
`O=C(O)c1ccc2c(c1)nc(-c1ccc(Oc3cccc(OCc4ccccc4Cl)c3)cc1)n2C1CCCCC1` [Example 213, 2-{4-[3-(2-chlorobenzyloxy)phenoxy]phenyl}-1-cyclohexylbenzimidazole-5-carboxylic acid]: the IC50 was 0.1 µM.
On to `O=C(O)c1ccc2c(c1)nc(-c1ccc(Oc3cccc(-c4cccnc4)c3)cc1)n2C1CCCCC1` [Example 214, 1-cyclohexyl-2-{4-[3-(3-pyridyl)phenoxy]phenyl}benzimidazole-5-carboxylic acid], for which the half-inhibitory concentration (IC50) worked out at 0.059 µM.
The value for `O=C(O)c1ccc2c(c1)nc(-c1ccc(Oc3cccc(-c4ccc(Cl)cc4)c3)cc1)n2C1CCCCC1` [Example 215, 2-{4-[3-(4-chlorophenyl)phenoxy]phenyl}-1-cyclohexylbenzimidazole-5-carboxylic acid] was 0.078 µM.
`COc1ccc(-c2cccc(Oc3ccc(-c4nc5cc(C(=O)O)ccc5n4C4CCCCC4)cc3)c2)cc1` [Example 216, 1-cyclohexyl-2-{4-[3-(4-methoxyphenyl)phenoxy]phenyl}-benzimidazole-5-carboxylic acid]: the IC50 stood at 0.084 µM.
The value for `Cc1nc(-c2ccc(S(C)(=O)=O)cc2)c(COc2ccc(-c3nc4cc(C(=O)O)ccc4n3C3CCCCC3)cc2)s1` [Example 217, 1-cyclohexyl-2-{4-[{4-(4-methanesulfonylphenyl)-2-methyl-5-thiazolyl}methoxy]phenyl}benzimidazole-5-carboxylic acid] was 0.058 µM.
